Reference: Sander's compilation of Henry's law constants (doi:10.1515/zpch-1906-5519)

Assay: Henry solubility constant Hcp at 298.15 K (mol/(m3 Pa))
Settings: reference: Rex (1906)

In the case of `CCCBr` [1-bromopropane], the “Henry solubility constant Hcp” value is reported as 0.0011.

In the case of `CCCI` [1-iodopropane], the “Henry solubility constant Hcp” value is reported as 0.001.

In the case of `CC(C)Br` [2-bromopropane], the “Henry solubility constant Hcp” value is reported as 0.0009.

With `CC(C)Cl` [2-chloropropane] the “Henry solubility constant Hcp” value was 0.00056.

In the case of `CC(C)I` [2-iodopropane], the “Henry solubility constant Hcp” value is reported as 0.00085.

With `CCBr` [bromoethane] the “Henry solubility constant Hcp” value was 0.0013.

With `S=C=S` [carbon disulfide] the “Henry solubility constant Hcp” value was 0.00054.

With `BrCBr` [dibromomethane] the “Henry solubility constant Hcp” value was 0.011.

With `ClCCl` [dichloromethane] the “Henry solubility constant Hcp” value was 0.0041.

With `CCI` [iodoethane] the “Henry solubility constant Hcp” value was 0.0015.

With `CI` [iodomethane] the “Henry solubility constant Hcp” value was 0.0019.

With `ClC(Cl)(Cl)Cl` [tetrachloromethane] the “Henry solubility constant Hcp” value was 0.00035.
